Columns and labels:
WT TTR = WT TTR (Homo sapiens (Human), UniProt P02766); assay: Acid-mediated fibril formation assay for TTR amyloidogenesis (turbidity); details: ligand 7.2 μM, TTR 3.6 μM, pH 4.4, 37° C., 72 h; no ligand = 100%
Description: The efficacy of each compound to inhibit TTR amyloidogenesis was determined by monitoring the turbidity of TTR aggregation at acidic pH, as described previously. […] The final 1 ml sample mixture was vortexed, then incubated at 37° C. for 72 hours, after which the sample was vortexed and the optical density was measured at 400 nm on a Beckman DU® 640 spectrophotometer. […] The optical density was also corrected for the absorption of all test compounds in the absence of TTR. […] The optical density (400 nm) was measured as described above at 0, 24, 48, 72, 96, and 120 hours. All assays were performed in triplicate and the average values obtained are presented.
TTR was preincubated with small molecules for 30 min at room temperature before amyloidosis was initiated (lowering pH to 4.4, incubation at 37° C.). […] The amyloidogenesis inhibition efficacy of each compound was determined by monitoring the turbidity of TTR (400 nm). The extent of TTR amyloidogenesis was quantitated at a fixed time point (72 h). All amyloid fibril formation data was normalized to TTR amyloidogenesis in the absence of inhibitor, assigned to be 100% fibril formation. […] The aggregation inhibition was monitored over 5 days using the acid-mediated fibril formation assay (compared to 3 days for the fixed time point described above) (FIG. 5B).

TTR = TTR (Homo sapiens (Human), UniProt P02766); assay: Determination of IC50 using the FP assay (HTS format, probe 5); type: binding; details: read-out: IC50 (compound concentration that resulted in 50% decrease in the FP signal); dose-response FP assay in duplicate
human wild type TTR = human wild type TTR (Homo sapiens (Human), UniProt P02766); assay: Isothermal titration calorimetry (ITC) of ligands against TTR; type: binding; details: for TΔS binding entropy / ΔG binding free energy / ΔH binding enthalpy: ITC; for Kd: TTR 2 μM titrated with ligand 25 μM, 25° C., one-to-one binding model, read-out: Kd (ITC)
Description: Calorimetric titrations were carried out on a VP-ITC calorimeter (MicroCal, Northhampton, Mass.). […] Prior to each titration, all samples were degassed for 10 minutes. The initial injection of 3.0 μL was followed by 30 injections of 8.0 μL each (25° C.) to the point that TTR was fully saturated with ligand. Integration of the thermogram after subtraction of blanks yielded a binding isotherm that was analyzed with MicroCal Origin 5.0 software.

| SMILES | % fibril formation (WT TTR) | IC50 (TTR) | further results |
| --- | --- | --- | --- |
| COc1ccc(/C=N/n2c(S)nnc2C(F)(F)F)cc1O | 0.43 ± 0.61% | 0.277 µM |  |
| COc1c(Br)cc(/C=C2\SC(=O)NC2=O)cc1Br | 0.37 ± 0.53% | 0.301 µM |  |
| CCOc1ccccc1-c1nc(-c2ccncc2)no1 | 0.00 ± 0.00% |  |  |
| CC1(C)NC(=O)C(C#N)=C(SCc2ccccc2)S1 | 0.52 ± 0.73% | 0.433 µM |  |
| O=c1cc(-c2ccc(O)cc2)oc2cc(O)cc(O)c12 | 10.07 ± 0.53% | 0.653 µM |  |
| O=C1NC(=O)/C(=C/c2cccc(C(F)(F)F)c2)S1 | 1.92 ± 1.08% | 0.815 µM |  |
| Cc1ccccc1/C=C1\SC(=O)NC1=O | 10.44 ± 4.88% | 3.35 µM |  |
| O=C1C(Br)=CC(=NS(=O)(=O)c2ccccc2)C=C1Br | 43.25 ± 4.35% | 5.41 µM |  |
| Oc1nc(O)c2sc3nc(C(F)(F)F)cc(Cc4ccccc4)c3c2n1 | 35.32 ± 3.69% | 5.6 µM |  |
| CC1=C(CCC(=O)O)C(=O)N2c3ccccc3NC2C1C#N (centres unmarked) | 46.24 ± 1.33% | 8.69 µM |  |
| NCCOCCOCCOc1c(Cl)cc(Nc2ccccc2C(=O)O)cc1Cl [Compound 4, 2-(4-(2-(2-(2-aminoethoxy)ethoxy)ethoxy)-3,5-dichlorophenylamino)benzoic acid] |  |  | TΔS binding entropy (human wild type TTR): 0.08 ± 0.01 kcal/mol; ΔG binding free energy (human wild type TTR): -8.93 ± 0.14 kcal/mol; ΔH binding enthalpy (human wild type TTR): -8.85 ± 0.95 kcal/mol; Kd (human wild type TTR): 0.285 µM |
| O=C(O)c1ccccc1Nc1cc(Cl)c(OCCOCCOCCNC(=S)Nc2ccc3c(c2)C(=O)OC32c3ccc(O)cc3Oc3cc(O)ccc32)c(Cl)c1 [Compound 5, 2-(3,5-dichloro-4-(2-(2-(2-(3-(3′,6′-dihydroxy-3-oxo-3H-spiro[isobenzofuran-1,9′-xanthene]-5-yl)thioureido)ethoxy)ethoxy)ethoxy)phenylamino)benzoic acid] |  |  | decrease in binding affinity to TTR on attaching FITC to 4 (human wild type TTR; 5 relative to 4): ~3 fold; TΔS binding entropy (human wild type TTR): 1.44 ± 0.07 kcal/mol; ΔG binding free energy (human wild type TTR): -8.30 ± 0.45 kcal/mol; ΔH binding enthalpy (human wild type TTR): -6.86 ± 0.36 kcal/mol; Kd (human wild type TTR): 0.82 µM |
| O=C(O)c1cccnc1Nc1cccc(C(F)(F)F)c1 [drawing 60] | 4.83 ± 1.19% |  |  |
| O=[N+]([O-])c1cc(O)c(O)c([N+](=O)[O-])c1 [drawing 68] | 1.08 ± 0.59% |  |  |

Now from value to molecule, other results behind:

| % fibril formation (WT TTR) | IC50 (TTR) | SMILES | further results |
| --- | --- | --- | --- |
| 5.77 ± 3.91% | 0.586 µM | Cc1[nH]c2ccccc2c1C(C#N)(C#N)C1C(=O)c2ccccc2C1=O |  |
| 3.22 ± 0.34% | 0.842 µM | O=C1NC(=O)/C(=C/c2cccc3ccccc23)S1 |  |
| 1.81 ± 2.56% | 2.58 µM | O=C(O)c1cc2nc(-c3ccc(Cl)c(Cl)c3)cc(C(F)(F)F)n2n1 |  |
| 9.60 ± 1.58% | 2.66 µM | COc1ccccc1CC(=O)c1ccc(O)cc1O |  |
| 13.91 ± 1.28% | 3.71 µM | O=c1c(Oc2ccccc2Br)coc2cc(O)ccc12 |  |
| 11.56 ± 0.72% | 3.74 µM | O=C(O)Cc1ccccc1Nc1c(O)cccc1Cl |  |
| 13.90 ± 5.52% | 3.93 µM | O=C1NC(=O)/C(=C/c2ccc(-c3ccc(Cl)c(C(=O)O)c3)o2)S1 |  |
| 24.36 ± 1.11% | 4.22 µM | O=c1c(Oc2ccccc2Cl)c(C(F)(F)F)oc2cc(O)ccc12 |  |
| 3.17 ± 4.48% | 4.79 µM | N#CC1=C(SCc2ccccc2)SC(c2ccccc2O)NC1=O (centres unmarked) |  |
| 28.77 ± 6.36% | 4.88 µM | CSC1=NSC2=NC(=O)/C(=C\c3cccc4ccccc34)C(=N)N12 |  |
| 17.57 ± 4.81% | 4.93 µM | CCOc1cc(C2NC(C(=O)O)CS2)cc(Br)c1OCc1ccccc1C (centres unmarked) |  |
| 38.38 ± 3.33% | 5.8 µM | O=C1NC(=O)/C(=C/c2ccccc2OCc2ccccc2)S1 |  |
| 48.25 ± 0.68% | 9.76 µM | COc1cc(/C=C2\C(=N)N3N=C(S(C)(=O)=O)SC3=NC2=O)ccc1OCc1ccccc1C |  |

Reference: patent publication US8877795B2, “Identification of stabilizers of multimeric proteins” (The Board of Trustees of the Leland Stanford Junior …, priority 2010, dated 2014)
